Results published in ChEMBL document CHEMBL3407472, “Multi-parameter optimization of aza-follow-ups to BI 207524, a thumb pocket 1 HCV NS5B polymerase inhibitor. Part 2: Impact of lipophilicity on promiscuity and in vivo toxicity” (Bioorg Med Chem Lett, 2015).

Legend:
[1] = Half life in human liver microsomes at 2 uM; type: ADME
[2] = Cmax in cynomolgous monkey at 5 mg/kg, po and 2 mg/kg, iv; type: ADME, organism-based, Macaca fascicularis; settings: cynomolgus monkey, in vivo
Hepatitis C virus [3] = experiment: Antiviral activity against Hepatitis C virus genotype 1a infected in human Huh cells assessed as inhibition of viral replication by RT-PCR-based replicon assay; type: functional, cell-based, Hepacivirus hominis; settings: subtype 1a
[4] = Cmax in rat at 5 mg/kg, po and 2 mg/kg, iv; type: ADME, organism-based; settings: in vivo
[5] = Bioavailability in rat at 5 mg/kg, po and 2 mg/kg, iv; type: ADME, organism-based; settings: in vivo
[6] = Permeability from apical to basolateral side of human Caco2 cells; type: ADME, cell-based; settings: Caco-2, read-out: permeability
[7] = Half life in rat liver microsomes at 2 uM; type: ADME
[8] = Half life in cynomolgous monkey at 5 mg/kg, po and 2 mg/kg, iv; type: ADME, organism-based, Macaca fascicularis; settings: cynomolgus monkey, in vivo
[9] = Clearance in rat at 5 mg/kg, po and 2 mg/kg, iv; type: ADME, organism-based; settings: in vivo
[10] = Clearance in cynomolgous monkey at 5 mg/kg, po and 2 mg/kg, iv; type: ADME, organism-based, Macaca fascicularis; settings: cynomolgus monkey, in vivo
[11] = AUC in dog at 5 mg/kg, po and 2 mg/kg, iv; type: ADME, organism-based, Canis lupus familiaris; settings: plasma
[12] = Ratio of drug uptake in liver to plasma of rat at 5 mg/kg, po and 2 mg/kg, iv after 6 to 8 hrs; type: ADME, organism-based
[13] = Volume of distribution at steady state in cynomolgous monkey at 5 mg/kg, po and 2 mg/kg, iv; type: ADME, organism-based, Macaca fascicularis; settings: cynomolgus monkey, in vivo, read-out: Vdss
[14] = Half life in dog at 5 mg/kg, po and 2 mg/kg, iv; type: ADME, organism-based, Canis lupus familiaris; settings: in vivo
[15] = Half life in cynomolgous monkey liver microsomes at 2 uM; type: ADME, Macaca fascicularis; settings: cynomolgus monkey
[16] = Bioavailability in cynomolgous monkey at 5 mg/kg, po and 2 mg/kg, iv; type: ADME, organism-based, Macaca fascicularis; settings: cynomolgus monkey, in vivo
[17] = molecular target: Voltage-gated inwardly rectifying potassium channel KCNH2 (Homo sapiens, UniProt Q12809); experiment: Inhibition of human ERG channel
[18] = Clearance in dog at 5 mg/kg, po and 2 mg/kg, iv; type: ADME, organism-based, Canis lupus familiaris; settings: in vivo
[19] = Lipophilicity, log D of the compound at pH 7.4; type: physicochemical; settings: buffer
Hepatitis C virus [20] = experiment: Antiviral activity against Hepatitis C virus genotype 1b infected in human Huh cells assessed as inhibition of viral replication by RT-PCR-based replicon assay; type: functional, cell-based, Hepacivirus hominis
[21] = Volume of distribution at steady state in dog at 5 mg/kg, po and 2 mg/kg, iv; type: ADME, organism-based, Canis lupus familiaris; settings: in vivo, read-out: Vdss
[22] = Half life in dog liver microsomes at 2 uM; type: ADME, Canis lupus familiaris
[23] = Half life in rat at 5 mg/kg, po and 2 mg/kg, iv; type: ADME, organism-based; settings: in vivo
[24] = AUC in cynomolgous monkey at 5 mg/kg, po and 2 mg/kg, iv; type: ADME, organism-based, Macaca fascicularis; settings: cynomolgus monkey, plasma
[25] = Cmax in dog at 5 mg/kg, po and 2 mg/kg, iv; type: ADME, organism-based, Canis lupus familiaris; settings: in vivo
[26] = Bioavailability in dog at 5 mg/kg, po and 2 mg/kg, iv; type: ADME, organism-based, Canis lupus familiaris; settings: in vivo
[27] = AUC in rat at 5 mg/kg, po and 2 mg/kg, iv; type: ADME, organism-based; settings: plasma
[28] = Volume of distribution at steady state in rat at 5 mg/kg, po and 2 mg/kg, iv; type: ADME, organism-based; settings: in vivo, read-out: Vdss
[29] = Induction of action potential duration in guinea pig papillary muscle cells at 30 uM; type: functional, Cavia porcellus

Voltage-gated inwardly rectifying potassium channel KCNH2, sequence (Q12809 whole entry): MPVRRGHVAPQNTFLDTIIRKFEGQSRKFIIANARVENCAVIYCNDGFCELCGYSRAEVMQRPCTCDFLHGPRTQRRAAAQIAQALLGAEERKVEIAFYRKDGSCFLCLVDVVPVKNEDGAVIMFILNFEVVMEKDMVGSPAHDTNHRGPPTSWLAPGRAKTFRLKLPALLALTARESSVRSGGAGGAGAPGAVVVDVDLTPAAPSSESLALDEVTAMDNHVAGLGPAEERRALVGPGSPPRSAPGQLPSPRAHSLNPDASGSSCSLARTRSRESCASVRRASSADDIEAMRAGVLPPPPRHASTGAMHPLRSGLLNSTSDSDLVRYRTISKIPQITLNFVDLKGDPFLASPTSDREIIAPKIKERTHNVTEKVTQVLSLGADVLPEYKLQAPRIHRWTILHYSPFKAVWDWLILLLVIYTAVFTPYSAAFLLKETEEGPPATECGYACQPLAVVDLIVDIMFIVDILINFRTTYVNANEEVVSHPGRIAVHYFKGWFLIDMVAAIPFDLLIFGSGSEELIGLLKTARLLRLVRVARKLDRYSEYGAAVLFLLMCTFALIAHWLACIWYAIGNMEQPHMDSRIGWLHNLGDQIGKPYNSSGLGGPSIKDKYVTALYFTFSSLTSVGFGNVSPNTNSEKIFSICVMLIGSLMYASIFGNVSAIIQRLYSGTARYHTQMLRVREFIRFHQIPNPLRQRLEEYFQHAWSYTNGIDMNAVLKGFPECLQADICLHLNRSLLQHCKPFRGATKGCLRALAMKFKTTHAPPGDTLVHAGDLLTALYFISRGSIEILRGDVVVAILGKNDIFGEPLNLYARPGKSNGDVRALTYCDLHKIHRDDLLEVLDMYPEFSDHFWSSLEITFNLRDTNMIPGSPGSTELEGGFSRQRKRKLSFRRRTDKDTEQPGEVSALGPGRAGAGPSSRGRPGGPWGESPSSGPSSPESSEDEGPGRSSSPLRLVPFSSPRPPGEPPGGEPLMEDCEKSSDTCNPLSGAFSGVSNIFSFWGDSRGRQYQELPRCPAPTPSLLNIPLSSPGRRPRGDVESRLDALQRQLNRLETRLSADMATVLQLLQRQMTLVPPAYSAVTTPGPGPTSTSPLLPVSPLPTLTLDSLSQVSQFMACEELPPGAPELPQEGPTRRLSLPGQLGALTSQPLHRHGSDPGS

CCOc1nc(NC(=O)C2(NC(=O)c3ccc4c(c3)c(C)c(-c3ccc(F)cn3)n4C3CCCCC3)CCC2)ccc1/C=C/C(=O)O gave a half-life at 2 µM [1] of 1.72 h, a Cmax [2] of 4.4 µM and an EC50 (Hepatitis C virus [3]) of 22 nM. It also gave a Cmax [4] of 4.5 µM, a bioavailability [5] of 36% and a Papp A→B [6] of 15 ×10⁻⁶ cm/s. It also gave a half-life at 2 µM [7] of 0.683 h, a half-life [8] of 2.4 h and a clearance [9] of 4.2 mL/min/kg. For the same compound, the clearance [10] was 4.1 mL/min/kg, the AUC [11] was 26 µM·h and the Kp [12] was 4. The Vd [13] was 0.34 L/kg, the half-life [14] was 3 h and the half-life at 2 µM [15] was 0.217 h. For the same compound, the bioavailability [16] was 45%, the IC50 [17] was 1400 nM and the clearance [18] was 1.9 mL/min/kg. It also gave a logD [19] greater than 4.9, an EC50 (Hepatitis C virus [20]) of 9 nM and a Vd [21] of 0.34 L/kg. For the same compound, the half-life at 2 µM [22] was 2.2 h, the half-life [23] was 1.7 h and the AUC [24] was 14 µM·h. It also gave a Cmax [25] of 5.9 µM, a bioavailability [26] of 42% and an AUC [27] of 11 µM·h. For the same compound, the Vd [28] was 0.4 L/kg and the Activity [29] was 20%.
